In ChEMBL document CHEMBL3045052, “Effect of the lipophilic parameter (log P) on the anti-parasitic activity of imidazo[1,2-a]pyridine derivatives” (Med Chem Res, 2012) one finds logP, MIC and EC50 data, which are given here for eleven compounds.

≈ marks a conversion by molar mass, not a printed value.

A short description of data set [1]: Partition coefficient, log P of compound at 1:2 1-octanol/water volume ratio by spectrophotometer. Type of data set: physicochemical.
Data set [2] is described as follows: Partition coefficient, log P of compound at 1:1 1-octanol/water volume ratio by spectrophotometer. Type of data set: physicochemical.
Data set [3] has as its system Trichomonas vaginalis. The experiment in a line: Antiparasitic activity against Trichomonas vaginalis GT3 after 24 hr by Alamar blue assay. Type of data set: functional. Conditions: GT3, 24 h.
The nature of data set [4]: Partition coefficient, log P of compound at 2:1 1-octanol/water volume ratio by spectrophotometer. In kind it is physicochemical.
For data set [5], the system named is Trichomonas vaginalis. Nature of the data set: Antiparasitic activity against Trichomonas vaginalis GT3 after 48 hr by Alamar blue assay. Conditions: GT3, 48 h. Type of data set: functional, organism-based. Background: Alamar Blue is a resazurin reagent that responds to reducing activity.

Regarding `O=[N+]([O-])c1c(NC2CCCCC2)nc2ccccn12`, the log partition coefficient (logP) in data set [1] turned out to be 1.5; in data set [2] it was 1.54; in data set [4], 1.5. Further, the MIC in data set [3] was found to be 61.5 µM (≈ 16 µg/mL); in data set [5] it was 30.8 µM (≈ 8.02 µg/mL). The compound further showed an EC50 in data set [5] of 61.5 µM.

For `Cc1cccc2nc(C#N)c([N+](=O)[O-])n12`, the figures for the logP in data set [1], in data set [2] and in data set [4] were 1.12, 1.19 and 1.08, respectively. The figures for the minimal inhibitory concentration (MIC) in data set [3] and in data set [5] were 4.95 µM (≈ 1 µg/mL) and 2.48 µM (≈ 0.501 µg/mL), respectively. The compound further yielded a concentration for a half-maximal effect (EC50) in data set [5] of 12.1 µM.

As for `N#Cc1nc2ccccn2c1[N+](=O)[O-]`, the logP stood at 0.641 in data set [1], 0.691 in data set [2] and 0.692 in data set [4]. The values for the minimal inhibitory concentration (MIC) in data set [3] and in data set [5] were 5.32 µM (≈ 1 µg/mL) and 2.66 µM (≈ 0.5 µg/mL), respectively. The compound further had an EC50 in data set [5] of 9.68 µM.

`CCOC(=O)c1nc2ccccn2c1[N+](=O)[O-]`: the values for the logP in data set [1], in data set [2] and in data set [4] were 1.04, 0.983 and 0.963, respectively. For the same compound, the minimum inhibitory concentration (MIC) in data set [3] and in data set [5] was 2.13 µM (≈ 0.501 µg/mL) each time. In data set [5], this compound showed an EC50 of 3.96 µM.

`Cc1cccc2nc(NC3CCCCC3)c([N+](=O)[O-])n12`: the results for the log partition coefficient (logP) in data set [1], in data set [2] and in data set [4] were 1.5, 1.56 and 1.5, respectively. In addition, the MIC was 58.4 µM (≈ 16 µg/mL) in data set [3] and 29.2 µM (≈ 8.01 µg/mL) in data set [5]. This compound also yielded a concentration giving a half-maximal response (EC50) in data set [5] of 64.3 µM.

Turning to `O=C(O)c1nc2ccccn2c1[N+](=O)[O-]`, the lipophilicity (logP) in data set [1] is -0.042; in data set [2] it was -0.041; in data set [4] it was -0.038. The MIC in data set [3] and in data set [5] was 19.3 µM (≈ 4 µg/mL) throughout. In data set [5], this compound yielded an EC50 of 21.1 µM.

For `Cc1ncc([N+](=O)[O-])n1CCO` [METRONIDAZOLE], the lipophilicity (logP) in data set [1] was 0.11; in data set [2] it was 0.12; in data set [4], 0.115. Further, the minimum inhibitory concentration (MIC) in data set [3] and in data set [5] was 2.92 µM (≈ 0.5 µg/mL) throughout. This compound also came in with an EC50 in data set [5] of 1.2 µM.

Turning to `CCOC(=O)c1nc2cccc(C)n2c1[N+](=O)[O-]`, the figures for the logP in data set [1], in data set [2] and in data set [4] were 1.2, 1.27 and 1.3, respectively. Besides, the minimum inhibitory concentration (MIC) in data set [3] and in data set [5] was 4.02 µM (≈ 1 µg/mL) throughout. In data set [5], a half-maximal effect (EC50) was put at 9.11 µM.

Take `NC(=O)c1nc2ccccn2c1[N+](=O)[O-]`: the log partition coefficient (logP) in data set [1] was -0.569; in data set [2], -0.515; in data set [4], -0.54. Also, the MIC in data set [3] and in data set [5] was 9.71 µM (≈ 2 µg/mL) throughout. A half-maximal effect in data set [5] (EC50) was put at 41.3 µM.

With `O=[N+]([O-])c1cnc2ccccn12`, the logP in data set [1] turned out to be 0.96; in data set [2], 0.938; in data set [4], 0.922. Moreover, the results for the minimum inhibitory concentration (MIC) in data set [3] and in data set [5] were 3.01 µM (≈ 0.491 µg/mL) and 3.07 µM (≈ 0.501 µg/mL), respectively. Moreover, the EC50 in data set [5] stood at 2.45 µM.

On to `Cc1cccc2nc(C(N)=O)c([N+](=O)[O-])n12`, for which the logP in data set [1] was 0.69; in data set [2], 0.67; in data set [4], 0.695. For the same compound, the minimum inhibitory concentration (MIC) in data set [3] and in data set [5] was 9.09 µM (≈ 2 µg/mL) throughout. In data set [5], this compound returned an EC50 of 14.6 µM.

Usually logP stands for a log measure of how a compound divides between an organic and an aqueous phase. By MIC is commonly meant the least concentration at which growth counts as inhibited. A high value points to weaker potency. What is called EC50 is the concentration giving half of the maximal effect.
